Biological target: T1, full length active recombinant SYK enzyme (Homo sapiens, UniProt P43405)
T1 construct: full length active recombinant SYK enzyme (Millipore, Calif.); purchased Millipore
Assay: Inhibition of Syk tyrosine phosphorylation activity (LANCE TR-FRET kinase assay)
Format: biochemical
Conditions: activity in the Syk assays, class symbols
Description: The in vitro and in vivo human Syk activities of the inventive compounds can be determined by various procedures known in the art, such as a test for their ability to inhibit the activity of human plasma Syk. […] The IC50 value is the concentration (in nM) of the compound required to provide 50% inhibition of human Syk proteolytic activity.
An in vitro assay for detecting and measuring inhibition activity against Syk is as follows:
Inhibition of Syk Tyrosine Phosphorylation Activity
Potency of candidate molecules for inhibiting Syk tyrosine phosphorylation activity is assessed by measuring the ability of a test compound to inhibit Syk-mediated tyrosine phosphorylation of a Syk-specific substrate.
SYK tyrosine phosphorylation activity is measured using the LANCE™ Technology developed by Perkin Elmer Life and Analytical Sciences (Boston, Mass.). LANCE™ refers to homogeneous time resolved fluorometry applications using techniques such as time-resolved fluorescence resonance energy transfer assay (TR-FRET) (see generally for procedures in Perkin Elmer Application Note-How to Optimize a Tyrosine Kinase Assay Using Time Resolved Fluorescence-Based LANCE Detection, wwww.perkinelmer.com/lifesciences). The assay principle involves detection of a phosphorylated substrate using energy transfer from a phosphospecific europium-labeled antibody to streptavidin-allophycocyanin as an acceptor.
To test the ability of candidate molecules to inhibit SYK tyrosine phosphorylation activity, molecules are reconstituted in 30% DMSO and serially diluted 1:3 with the final dilution containing DMSO in the absence of the candidate molecule. The final DMSO concentration in the assay is 3%. Kinase assays are performed as a two part reaction. The first reaction is a kinase reaction and which comprises of a candidate molecule, full length active recombinant SYK enzyme (Millipore, Calif.) and biotin-labeled SYK-specific substrate biotin-DEEDYESP-OH. The second reaction involves termination of the kinase reaction and the simultaneous addition of the detection reagents-europium-labeled anti-phosphotyrosine reagent (Eu-W1024-PY100, Perkin Elmer, Boston, Mass.) and Streptavidin-Allophycocyanin detection reagent (SA-APC, Prozyme, CA). The kinase reaction is performed in a black U-bottom 96-well microtitre plate. The final reaction volume is 50 μL and contains a final concentration of 1 nM active SYK enzyme, 550 nM SYK-substrate, and 100 μM ATP diluted in a buffer containing 50 mM Tris pH 7.5, 5 mM MgCl2, and 1 mM DTT. The reaction is allowed to proceed for 1 hour at room temperature. The quench buffer contains 100 mM Tris pH 7.5, 300 mM NaCl2, 20 mM EDTA, 0.02% Brij35, and 0.5% BSA. The detection reagents are added to the reaction mixture at the following dilutions-1:500 for Eu-W1024-PY100 and 1:250 for SA-APC. The kinase reaction is terminated by the addition of 50 μL quench buffer containing the detection reagents. The detection is allowed to proceed for 1 hr at room temperature. Detection of the phosphorlated substrate in the absence and presence of inhibitors is measured in the TR-FRET instrument, Analyst HT (Molecular Probes, Sunnyvale, Calif.) and the condition for measurements are set up using CriterionHost Release 2.0 (Molecular Probes, Sunnyvale, Calif.). The settings used are a follows: excitation 360 nm, emission 665-7.5 nm, beam splitter 350 nm 50/50, flash 100 pulses, delay 60 us, integration 400 us, z-height 2 mm. Inhibition of SYK-tyrosine kinase activity is calculated as the maximum response observed in the presence of inhibitor, compared to that in the absence of inhibitor. IC50s were derived by non-linear regression analysis.

`CC(C)C[C@@H](Nc1cnc(C(N)=O)c(Nc2cncc(F)c2)n1)C(N)=O` [Example 70, (R)-5-(1-amino-4-methyl-1-oxopentan-2-ylamino)-3-(5-fluoropyridin-3-ylamino)pyrazine-2-carboxamide] was tested. Which IC50 did it give?
The IC50 was 10 to 100 nM.

`CC(C)C[C@@H](Nc1cnc(C(N)=O)c(Nc2ccc(-n3cccn3)cc2)n1)C(N)=O` [Example 71] was tested. Which IC50 did it give?
Its IC50 is 10 to 100 nM.

Which IC50 does the source give for `NC(=O)c1ncc(N[C@H](C2CC2)C2(N)CC2)nc1Nc1cccc(-c2ncccn2)c1` [Example 72, (R)-5-((1-aminocyclopropyl)(cyclopropyl)methylamino)-3-(3-(pyrimidin-2-yl)phenylamino)pyrazine-2-carboxamide] here?
Its IC50 is 1 to 10 nM.

How did the IC50 turn out when `CC[C@@H](Nc1cnc(C(N)=O)c(Nc2cnc3ccccc3c2)n1)C(N)=O` [Example 73, (R)-5-(1-amino-1-oxobutan-2-ylamino)-3-(quinolin-3-ylamino)pyrazine-2-carboxamide] was run?
Its IC50 is 1 to 10 nM.

With `CC[C@@H](Nc1cnc(C(N)=O)c(Nc2ccc3ncccc3c2)n1)C(N)=O` [Example 74, (R)-5-(1-amino-1-oxobutan-2-ylamino)-3-(quinolin-6-ylamino)pyrazine-2-carboxamide] as the compound, how does the IC50 read?
Its IC50 is 1 to 10 nM.

For `CC[C@@H](Nc1cnc(C(N)=O)c(Nc2csc3ncccc23)n1)C(N)=O` [Example 75, (R)-5-(1-amino-1-oxobutan-2-ylamino)-3-(thieno[2,3-b]pyridin-3-ylamino)pyrazine-2-carboxamide], which IC50 is on record?
Its IC50 is 1 to 10 nM.

`NC(=O)c1ncc(N[C@@H](C(N)=O)C2CC2)nc1Nc1ccc2ncccc2c1` [Example 76, (R)-5-(2-amino-1-cyclopropyl-2-oxoethylamino)-3-(quinolin-6-ylamino)pyrazine-2-carboxamide] was tested. Which IC50 did it give?
Its IC50 is 1 to 10 nM.

How did the IC50 turn out when `CC[C@@H](Nc1cnc(C(N)=O)c(Nc2cc(C)cc(C)c2)n1)C(N)=O` [Example 77, (R)-5-(1-amino-1-oxobutan-2-ylamino)-3-(3,5-dimethylphenylamino)pyrazine-2-carboxamide] was run?
Its IC50 is 1 to 10 nM.

`Cc1ccc(Nc2nc(N[C@@H]3CCOC[C@@H]3N)cnc2C(N)=O)cc1` [Example 78, 5-((3R,4R)-3-aminotetrahydro-2H-pyran-4-ylamino)-3-(p-tolylamino)pyrazine-2-carboxamide] was tested. Which IC50 did it give?
Its IC50 is 1 to 10 nM.

`NC(=O)c1ncc(N[C@@H]2CCOC[C@@H]2N)nc1Nc1cnc2ccccc2c1` [Example 79, 5-((3R,4R)-3-aminotetrahydro-2H-pyran-4-ylamino)-3-(quinolin-3-ylamino)pyrazine-2-carboxamide] was tested. Which IC50 did it give?
The IC50 was 1 to 10 nM.

How did the IC50 turn out when `CC[C@@H](Nc1cnc(C(N)=O)c(Nc2ccc(-n3ccnc3)cc2)n1)C(N)=O` [Example 80, (R)-3-(4-(1H-imidazol-1-yl)phenylamino)-5-(1-amino-1-oxobutan-2-ylamino)-pyrazine-2-carboxamide] was run?
The IC50 was 1 to 10 nM.

How did the IC50 turn out when `NC(=O)c1ncc(N[C@@H]2CCOC[C@@H]2N)nc1Nc1cccc(-n2nccn2)c1` [Example 81, 3-(3-(2H-1,2,3-triazol-2-yl)phenylamino)-5-((3R,4R)-3-aminotetrahydro-2H-pyran-4-ylamino)pyrazine-2-carboxamide] was run?
The IC50 was less than 1 nM.

With `NC(=O)c1ncc(N[C@@H]2CCOC[C@@H]2N)nc1Nc1cccc(-c2ncccn2)c1` [Example 82, 5-((3R,4R)-3-aminotetrahydro-2H-pyran-4-ylamino)-3-(3-(pyrimidin-2-yl)phenylamino)pyrazine-2-carboxamide] as the compound, how does the IC50 read?
Its IC50 is 1 to 10 nM.

For `Cc1cncc(Nc2nc(N[C@H](CC(C)C)C(N)=O)cnc2C(N)=O)c1` [Example 83, (R)-5-(1-amino-4-methyl-1-oxopentan-2-ylamino)-3-(5-methylpyridin-3-ylamino)pyrazine-2-carboxamide], which IC50 is on record?
The IC50 was 1 to 10 nM.

With `Cc1cc(Nc2nc(N[C@H](CC(C)C)C(N)=O)cnc2C(N)=O)ccn1` [Example 84, (R)-5-(1-amino-4-methyl-1-oxopentan-2-ylamino)-3-(2-methylpyridin-4-ylamino)pyrazine-2-carboxamide] as the compound, how does the IC50 read?
The IC50 was 1 to 10 nM.

For `CC(C)C[C@@H](Nc1cnc(C(N)=O)c(Nc2ccc(C(F)(F)F)nc2)n1)C(N)=O` [Example 85, (R)-5-(1-amino-4-methyl-1-oxopentan-2-ylamino)-3-(6-(trifluoromethyl)pyridin-3-ylamino)pyrazine-2-carboxamide], which IC50 is on record?
The IC50 was 10 to 100 nM.

With `Cc1ccc(Nc2nc(N[C@H](CC(C)C)C(N)=O)cnc2C(N)=O)cn1` [Example 86, (R)-5-(1-amino-4-methyl-1-oxopentan-2-ylamino)-3-(6-methylpyridin-3-ylamino)pyrazine-2-carboxamide] as the compound, how does the IC50 read?
The IC50 was 10 to 100 nM.

How did the IC50 turn out when `CC(C)C[C@@H](Nc1cnc(C(N)=O)c(Nc2cccc(-c3ccncc3)c2)n1)C(N)=O` [Example 87, (R)-5-(1-amino-4-methyl-1-oxopentan-2-ylamino)-3-(3-(pyridin-4-yl)phenylamino)pyrazine-2-carboxamide] was run?
The IC50 was 1 to 10 nM.

Which IC50 does the source give for `CC(C)C[C@@H](Nc1cnc(C(N)=O)c(Nc2ccc(-c3ccccn3)cc2)n1)C(N)=O` [Example 88, (R)-5-(1-amino-4-methyl-1-oxopentan-2-ylamino)-3-(4-(pyridin-2-yl)phenylamino)pyrazine-2-carboxamide] here?
Its IC50 is 1 to 10 nM.

For `CC(C)C[C@@H](Nc1cnc(C(N)=O)c(Nc2ccc3c(c2)CCC(=O)N3C)n1)C(N)=O` [Example 89, (R)-5-(1-amino-4-methyl-1-oxopentan-2-ylamino)-3-(1-methyl-2-oxo-1,2,3,4-tetrahydroquinolin-6-ylamino)pyrazine-2-carboxamide], which IC50 is on record?
Its IC50 is 1 to 10 nM.

With `CN1C(=O)CCc2cc(Nc3nc(N[C@@H]4CCCC[C@@H]4N)cnc3C(N)=O)ccc21` [Example 90, 5-((1R,2S)-2-aminocyclohexylamino)-3-(1-methyl-2-oxo-1,2,3,4-tetrahydroquinolin-6-ylamino)pyrazine-2-carboxamide] as the compound, how does the IC50 read?
The IC50 was 1 to 10 nM.

How did the IC50 turn out when `COc1cc(Nc2nc(N[C@H]3CCCC[C@@H]3N)cnc2C(N)=O)cc(OC)c1` [Example 93, 5-(((1S,2S)-2-aminocyclohexyl)amino)-3-((3,5-dimethoxyphenyl)amino)pyrazine-2-carboxamide] was run?
Its IC50 is 1 to 10 nM.

With `CC(C)C[C@@H](Nc1nc(Nc2cnc3ccccc3c2)cnc1C(N)=O)C(N)=O` [Example 95, (R)-3-(1-amino-4-methyl-1-oxopentan-2-ylamino)-5-(quinolin-3-ylamino)pyrazine-2-carboxamide] as the compound, how does the IC50 read?
Its IC50 is greater than 1000 nM.

Which IC50 does the source give for `NC(=O)c1ncc(Nc2cccc(-n3nccn3)c2)nc1N[C@@H]1CCCC[C@@H]1N` [Example 96, 5-(3-(2H-1,2,3-triazol-2-yl)phenylamino)-3-((1R,2S)-2-aminocyclohexylamino)pyrazine-2-carboxamide] here?
The IC50 was 10 to 100 nM.

`CC[C@@H](Nc1cnc(C(N)=O)c(-n2cnc(-c3ccc(N)cc3)c2)n1)C(N)=O` [Example 97, (R)-5-(1-amino-1-oxobutan-2-ylamino)-3-(4-(4-aminophenyl)-1H-imidazol-1-yl)pyrazine-2-carboxamide] was tested. Which IC50 did it give?
The IC50 was greater than 1000 nM.

`CC(C)C[C@@H](Nc1cnc(C(N)=O)c(Nc2cccc(-c3ccccn3)c2)n1)C(N)=O` [Example 98, (R)-5-(1-amino-4-methyl-1-oxopentan-2-ylamino)-3-(3-(pyridin-2-yl)phenylamino)pyrazine-2-carboxamide] was tested. Which IC50 did it give?
Its IC50 is 10 to 100 nM.

How did the IC50 turn out when `Cc1cncc(Nc2nc(N[C@H](CC3CC3)C(N)=O)cnc2C(N)=O)c1` [Example 99, (R)-5-(1-amino-3-cyclopropyl-1-oxopropan-2-ylamino)-3-(5-methylpyridin-3-ylamino)pyrazine-2-carboxamide] was run?
The IC50 was 1 to 10 nM.

How did the IC50 turn out when `Cc1cc(Nc2nc(N[C@H](CC3CC3)C(N)=O)cnc2C(N)=O)c[n+]([O-])c1` [Example 100, (R)-3-(6-(1-amino-3-cyclopropyl-1-oxopropan-2-ylamino)-3-carbamoylpyrazin-2-ylamino)-5-methylpyridine 1-oxide] was run?
Its IC50 is 10 to 100 nM.

For `Cc1cc(Nc2nc(N[C@H](CC3CC3)C(N)=O)cnc2C(N)=O)ccn1` [Example 101, (R)-5-(1-amino-3-cyclopropyl-1-oxopropan-2-ylamino)-3-(2-methylpyridin-4-ylamino)pyrazine-2-carboxamide], which IC50 is on record?
The IC50 was 1 to 10 nM.

Reference: patent publication US9359308B2, “Pyrazine kinase inhibitors” (Portola Pharmaceuticals, Inc., priority 2011, dated 2016)
